The target in assay [1] is FGFR3 enzyme (Homo sapiens (Human), UniProt P22607). In words: FGFR Enzymatic Assay (peptide phosphorylation, FRET), FGFR3. The note with it: IC50 ratio showing FGFR3 selectivity; pre-incubated for 4 hours. It is filed as biochemical. On the procedure: (§1) The inhibitor potency of the exemplified compounds was measured in an enzyme assay that measures peptide phosphorylation using FRET measurements to detect product formation. Inhibitors were serially diluted in DMSO and a volume of 0.5 μL was transferred to the wells of a 384-well plate.
(§2) GraphPad prism3 was used to analyze the data.

Assay [2] deals with FGFR4 (Homo sapiens (Human), UniProt P22455). The assay is described as follows: FGFR Enzymatic Assay (peptide phosphorylation, FRET), FGFR4. It is filed as biochemical. On the procedure: as §1
The enzymes were purchased from Millipore or Invitrogen.
as §2

Where [3] appears, read: IC50 ratio showing FGFR4 selectivity, pre-incubated for 4 hours.
[4] abbreviates: ratio of IC50 data showing FGFR4 selectivity, pre-incubated for 5 to 10 minutes.

Each structure is given as a SMILES string.

FGFR4, sequence (P22455 22-802): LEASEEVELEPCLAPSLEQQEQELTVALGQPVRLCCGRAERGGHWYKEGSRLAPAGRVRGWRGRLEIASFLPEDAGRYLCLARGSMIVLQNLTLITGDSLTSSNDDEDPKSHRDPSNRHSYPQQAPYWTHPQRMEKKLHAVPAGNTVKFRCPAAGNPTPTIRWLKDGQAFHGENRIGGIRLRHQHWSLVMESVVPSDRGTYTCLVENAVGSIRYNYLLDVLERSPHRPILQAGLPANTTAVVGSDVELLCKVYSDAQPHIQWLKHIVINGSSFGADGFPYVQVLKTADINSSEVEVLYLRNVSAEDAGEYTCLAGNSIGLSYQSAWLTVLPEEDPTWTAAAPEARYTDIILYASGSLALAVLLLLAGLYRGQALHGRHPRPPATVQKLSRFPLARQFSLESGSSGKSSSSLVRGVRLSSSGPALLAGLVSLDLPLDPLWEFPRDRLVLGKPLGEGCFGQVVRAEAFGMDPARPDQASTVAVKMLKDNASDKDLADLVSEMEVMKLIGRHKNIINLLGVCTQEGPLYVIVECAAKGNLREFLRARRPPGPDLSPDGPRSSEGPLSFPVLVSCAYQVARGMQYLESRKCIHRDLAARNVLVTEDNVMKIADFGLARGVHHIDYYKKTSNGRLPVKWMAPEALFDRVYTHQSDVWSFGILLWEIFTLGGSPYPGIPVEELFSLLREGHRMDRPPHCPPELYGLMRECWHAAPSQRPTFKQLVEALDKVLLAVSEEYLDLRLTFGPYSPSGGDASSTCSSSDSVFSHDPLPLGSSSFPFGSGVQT
FGFR3 enzyme, sequence (P22607 23-806): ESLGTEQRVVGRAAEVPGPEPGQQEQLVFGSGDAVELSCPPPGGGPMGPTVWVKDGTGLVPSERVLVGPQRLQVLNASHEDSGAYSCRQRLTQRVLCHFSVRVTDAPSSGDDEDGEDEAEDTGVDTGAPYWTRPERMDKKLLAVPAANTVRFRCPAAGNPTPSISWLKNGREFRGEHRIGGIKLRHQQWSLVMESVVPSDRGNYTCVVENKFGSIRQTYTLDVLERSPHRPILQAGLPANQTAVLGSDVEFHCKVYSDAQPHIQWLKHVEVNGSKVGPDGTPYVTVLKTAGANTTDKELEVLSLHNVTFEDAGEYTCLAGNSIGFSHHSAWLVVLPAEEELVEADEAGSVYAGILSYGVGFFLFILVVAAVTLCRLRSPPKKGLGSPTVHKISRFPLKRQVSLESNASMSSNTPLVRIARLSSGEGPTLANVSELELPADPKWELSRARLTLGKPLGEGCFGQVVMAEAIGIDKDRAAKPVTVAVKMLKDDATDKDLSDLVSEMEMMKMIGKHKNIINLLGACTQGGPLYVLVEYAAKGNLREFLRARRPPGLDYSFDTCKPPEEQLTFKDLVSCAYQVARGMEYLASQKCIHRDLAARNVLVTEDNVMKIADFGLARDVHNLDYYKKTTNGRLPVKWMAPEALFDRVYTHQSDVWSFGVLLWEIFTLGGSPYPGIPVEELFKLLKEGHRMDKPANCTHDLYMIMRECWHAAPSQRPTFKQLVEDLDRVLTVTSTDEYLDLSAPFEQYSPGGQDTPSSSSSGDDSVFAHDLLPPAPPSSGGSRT

For `COc1cc(OC)c(F)c(N2Cc3cnc(-c4cc(N)cnc4C)cc3C3(CC3)C2=O)c1F` [Example 7, 6′-(5-amino-2-methylpyridin-3-yl)-2′-(2,6-difluoro-3,5-dimethoxyphenyl)-1′H-spiro[cyclopropane-1,4′-[2,7]naphthyridin]-3′(2′H)-one], the FGFR1/FGFR3 in assay [1] is given as over 1. Further, in assay [2] (setting [3]), the FGFR1/FGFR4 is on record as over 50, the FGFR2/FGFR4 was over 25 and the FGFR3/FGFR4 is listed as over 25. Also, in assay [2] (setting [4]), the FGFR1/FGFR4 was over 25, the FGFR2/FGFR4 is reported as over 10 and the FGFR3/FGFR4 is listed as over 10.
For `COc1cc(OC)c(F)c(N2Cc3cnc(-c4cccnc4)cc3C3(CC3)C2=O)c1F` [Example 9, 2′-(2,6-difluoro-3,5-dimethoxyphenyl)-6′-(pyridin-3-yl)-1′H-spiro[cyclopropane-1,4′-[2,7]naphthyridin]-3′(2′H)-one], the FGFR1/FGFR3 in assay [1] is recorded as over 3. In assay [2] (setting [3]), the FGFR1/FGFR4 is listed as over 10, the FGFR2/FGFR4 is listed as over 1 and the FGFR3/FGFR4 is recorded as over 1. In assay [2] (setting [4]), the FGFR1/FGFR4 is on record as over 5, the FGFR2/FGFR4 was over 1 and the FGFR3/FGFR4 is on record as over 1.
Take `COc1cc(OC)c(F)c(N2Cc3cnc(-c4cncc(-n5ccnc5)c4)cc3C3(CC3)C2=O)c1F` [Example 12, 6′-(5-(1H-imidazol-1-yl)pyridin-3-yl)-2′-(2,6-difluoro-3,5-dimethoxyphenyl)-1′H-spiro[cyclopropane-1,4′-[2,7]naphthyridin]-3′(2′H)-one]: the FGFR1/FGFR3 in assay [1] is recorded as over 3. In addition, in assay [2] (setting [3]), the FGFR1/FGFR4 is recorded as over 50, the FGFR2/FGFR4 is on record as over 25 and the FGFR3/FGFR4 was over 10. In assay [2] (setting [4]), the FGFR1/FGFR4 is given as over 50, the FGFR2/FGFR4 is given as over 25 and the FGFR3/FGFR4 is on record as over 20.
As to `COc1cc(OC)c(F)c(N2Cc3cnc(-c4cncc(CN5CCOCC5)c4)cc3C3(CC3)C2=O)c1F` [Example 16, 2′-(2,6-difluoro-3,5-dimethoxyphenyl)-6′-(5-(morpholinomethyl)pyridin-3-yl)-1′H-spiro[cyclopropane-1,4′-[2,7]naphthyridin]-3′(2′H)-one], the FGFR1/FGFR3 in assay [1] is on record as over 1. In assay [2] (setting [3]), the FGFR1/FGFR4 is given as over 50, the FGFR2/FGFR4 was over 25 and the FGFR3/FGFR4 is on record as over 10. For the same compound, in assay [2] (setting [4]), the FGFR1/FGFR4 is given as over 25, the FGFR2/FGFR4 was over 10 and the FGFR3/FGFR4 is reported as over 10.
`COc1cc(OC)c(F)c(N2Cc3cnc(-c4cncc(S(=O)(=O)N5CCOCC5)c4)cc3C3(CC3)C2=O)c1F` [Example 14, 2′-(2,6-difluoro-3,5-dimethoxyphenyl)-6′-(5-(morpholinosulfonyl)pyridin-3-yl)-1′H-spiro[cyclopropane-1,4′-[2,7]naphthyridin]-3′(2′H)-one]: the FGFR1/FGFR3 in assay [1] is listed as over 5. For the same compound, in assay [2] (setting [3]), the FGFR1/FGFR4 is recorded as over 50, the FGFR2/FGFR4 is over 10 and the FGFR3/FGFR4 is over 1. In assay [2] (setting [4]), the FGFR1/FGFR4 is given as over 25, the FGFR2/FGFR4 was over 5 and the FGFR3/FGFR4 is listed as over 5.
`COc1cc(OC)c(F)c(N2Cc3cnc(-c4cncc(C(=O)N5CCOCC5)c4)cc3C3(CC3)C2=O)c1F` [Example 13, 2′-(2,6-difluoro-3,5-dimethoxyphenyl)-6′-(5-(morpholine-4-carbonyl)pyridin-3-yl)-1′H-spiro[cyclopropane-1,4′-[2,7]naphthyridin]-3′(2′H)-one]: the FGFR1/FGFR3 in assay [1] is over 3. Further, in assay [2] (setting [3]), the FGFR1/FGFR4 was over 50, the FGFR2/FGFR4 is on record as over 25 and the FGFR3/FGFR4 is given as over 10. Also, in assay [2] (setting [4]), the FGFR1/FGFR4 is over 50, the FGFR2/FGFR4 is listed as over 20 and the FGFR3/FGFR4 is on record as over 10.
Consider `COc1cc(OC)c(F)c(N2Cc3cnc(-c4cncc(NS(C)(=O)=O)c4)cc3C3(CC3)C2=O)c1F` [Example 15, N-(5-(2′-(2,6-difluoro-3,5-dimethoxyphenyl)-3′-oxo-2′,3′-dihydro-1′H-spiro[cyclopropane-1,4′-[2,7]naphthyridine]-6′-yl)pyridin-3-yl)methanesulfonamide], for which, in assay [1], the FGFR1/FGFR3 is listed as over 3. In addition, in assay [2] (setting [3]), the FGFR1/FGFR4 is over 50, the FGFR2/FGFR4 is reported as over 25 and the FGFR3/FGFR4 is over 10. In assay [2] (setting [4]), the FGFR1/FGFR4 is over 50, the FGFR2/FGFR4 is given as over 25 and the FGFR3/FGFR4 is over 10.
Turning to `COc1cc(OC)c(F)c(N2Cc3cnc(-c4cc(N)c(F)cc4C)cc3C3(CC3)C2=O)c1F` [Example 2, 6′-(5-amino-4-fluoro-2-methylphenyl)-2′-(2,6-difluoro-3,5-dimethoxyphenyl)-1′H-spiro[cyclopropane-1,4′-[2,7]naphthyridin]-3′(2′H)-one], in assay [2] (setting [3]), the FGFR1/FGFR4 is recorded as over 10, the FGFR2/FGFR4 is recorded as over 10 and the FGFR3/FGFR4 is over 10. Moreover, in assay [2] (setting [4]), the FGFR1/FGFR4 is on record as over 10, the FGFR2/FGFR4 is reported as over 10 and the FGFR3/FGFR4 was over 10.
Take `COc1cc(OC)c(F)c(N2Cc3cnc(-c4cc(N)ccc4C)cc3C3(CC3)C2=O)c1F` [Example 1, 6′-(5-amino-2-methylphenyl)-2′-(2,6-difluoro-3,5-dimethoxyphenyl)-1′H-spiro[cyclopropane-1,4′-[2,7]naphthyridin]-3′(2′H)-one]: in assay [2] (setting [3]), the FGFR1/FGFR4 is on record as over 25, the FGFR2/FGFR4 is on record as over 25 and the FGFR3/FGFR4 is over 25. Moreover, in assay [2] (setting [4]), the FGFR1/FGFR4 is over 25, the FGFR2/FGFR4 is on record as over 25 and the FGFR3/FGFR4 was over 50.
For the compound `COc1cc(OC)c(F)c(N2Cc3cnc(-c4[nH]ncc4C#N)cc3C3(CC3)C2=O)c1F` [Example 171, 5-(2′-(2,6-difluoro-3,5-dimethoxyphenyl)-3′-oxo-2′,3′-dihydro-1′H-spiro[cyclopropane-1,4′-[2,7]naphthyridine]-6′-yl)-1H-pyrazole-4-carbonitrile], in assay [2] (setting [3]), the FGFR1/FGFR4 is over 10, the FGFR2/FGFR4 was over 10 and the FGFR3/FGFR4 is recorded as over 10.
For the compound `COc1cc(OC)c(F)c(N2Cc3cnc(-c4nn(CC#N)cc4C#N)cc3C3(CC3)C2=O)c1F` [Example 174, 1-(cyanomethyl)-3-(2′-(2,6-difluoro-3,5-dimethoxyphenyl)-3′-oxo-2′,3′-dihydro-1′H-spiro[cyclopropane-1,4′-[2,7]naphthyridine]-6′-yl)-1H-pyrazole-4-carbonitrile], in assay [2] (setting [3]), the FGFR1/FGFR4 is over 100, the FGFR2/FGFR4 was over 10 and the FGFR3/FGFR4 is listed as over 25.
Consider `COc1cc(OC)c(F)c(N2Cc3cnc(-c4cc(N)ccc4C#N)cc3C3(CC3)C2=O)c1F` [Example 3, 4-amino-2-(2′-(2,6-difluoro-3,5-dimethoxyphenyl)-3′-oxo-2′,3′-dihydro-1′H-spiro[cyclopropane-1,4′-[2,7]naphthyridine]-6′-yl)benzonitrile], for which, in assay [2] (setting [3]), the FGFR1/FGFR4 was over 25, the FGFR2/FGFR4 is over 25 and the FGFR3/FGFR4 is on record as over 10. In assay [2] (setting [4]), the FGFR1/FGFR4 was over 25, the FGFR2/FGFR4 was over 25 and the FGFR3/FGFR4 is given as over 25.
As for `COc1cc(OC)c(F)c(N2Cc3cnc(-c4nn(CC5CCOCC5)cc4C#N)cc3C3(CC3)C2=O)c1F` [Example 173, 3-(2′-(2,6-difluoro-3,5-dimethoxyphenyl)-3′-oxo-2′,3′-dihydro-1′H-spiro[cyclopropane-1,4′-[2,7]naphthyridine]-6′-yl)-1-((tetrahydro-2H-pyran-4-yl)methyl)-1H-pyrazole-4-carbonitrile], in assay [2] (setting [3]), the FGFR1/FGFR4 was over 100, the FGFR2/FGFR4 is reported as over 100 and the FGFR3/FGFR4 is listed as over 50.
`COc1cc(OC)c(F)c(N2Cc3cnc(-c4nn(C)cc4C#N)cc3C3(CC3)C2=O)c1F` [Example 172, 3-(2′-(2,6-difluoro-3,5-dimethoxyphenyl)-3′-oxo-2′,3′-dihydro-1′H-spiro[cyclopropane-1,4′-[2,7]naphthyridine]-6′-yl)-1-methyl-1H-pyrazole-4-carbonitrile]: in assay [2] (setting [3]), the FGFR1/FGFR4 is given as over 50, the FGFR2/FGFR4 was over 25 and the FGFR3/FGFR4 is recorded as over 10.
For `CCn1cc(CN2C(=O)N(c3c(F)c(OC)cc(OC)c3F)Cc3cnc(-c4cn(C)nc4C)cc32)cn1` [Example 39, 3-(2,6-difluoro-3,5-dimethoxyphenyl)-7-(1,3-dimethyl-1H-pyrazol-4-yl)-1-((1-ethyl-1H-pyrazol-4-yl)methyl)-3,4-dihydropyrido[4,3-d]pyrimidin-2(1H)-one], in assay [1], the FGFR1/FGFR3 was over 10 and the FGFR4/FGFR3 was over 10.
For `CNS(=O)(=O)c1cccc(N2C(=O)N(c3c(F)c(OC)cc(OC)c3F)Cc3cnc(-c4cn(C)nc4C)cc32)c1` [Example 111, 3-(3-(2,6-difluoro-3,5-dimethoxyphenyl)-7-(1,3-dimethyl-1H-pyrazol-4-yl)-2-oxo-3,4-dihydropyrido[4,3-d]pyrimidin-1(2H)-yl)-N-methylbenzenesulfonamide], in assay [1], the FGFR1/FGFR3 is over 3 and the FGFR4/FGFR3 was over 5.
In the same order, the values of `COc1cc(OC)c(F)c(N2Cc3cnc(-c4cn(C)nc4C)cc3N(Cc3cccnn3)C2=O)c1F` [Example 88, 3-(2,6-difluoro-3,5-dimethoxyphenyl)-7-(1,3-dimethyl-1H-pyrazol-4-yl)-1-(pyridazin-3-ylmethyl)-3,4-dihydropyrido[4,3-d]pyrimidin-2(1H)-one] are over 5 and over 10.

The record behind these values is patent publication US10251892B2, “Bicyclic heterocycles as FGFR4 inhibitors” (Incyte Corporation, priority 2015, dated 2019).
